Data from article PMC8839448, “Novel Pyridothienopyrimidine Derivatives: Design, Synthesis and Biological Evaluation as Antimicrobial and Anticancer Agents” (Molecules, 2022).
≈ marks a conversion by molar mass, not a printed value. Where “and” joins values, the source holds several entries; their conditions need not be identical. Identical values can stand only once. Like-named read-outs stand apart in the source and are kept apart here.

Columns and labels:
[1] = test system: Saccharomycese cerevisiae; assay: In vitro antifungal activity, MIC by broth dilution; format: cell-based; details: Saccharomyces cerevisiae, yeast, read-out: MIC S. cerevisiae
Bacillus cereus 33018 = assay: In vitro antibacterial activity, MIC by broth dilution; format: cell-based; details: Gram +ve bacteria, read-out: MIC B. cereus
[2] = test system: breast cancer (MCF-7) cells; assay: Cytotoxicity, MTT assay; format: cell-based, human; details: read-out: Cytotoxic activity IC50 MCF7
Candida albicans 10231 = assay: In vitro antifungal activity, MIC by broth dilution; format: cell-based; details: yeast, read-out: MIC C. albicans
[3] = test system: Salmonella typhimurium 14028; assay: In vitro antibacterial activity, MIC by broth dilution; format: cell-based; details: Salmonella enterica, Gram −ve bacteria, read-out: MIC S. typhimurium
[4] = test system: hepatocellular carcinoma (HepG2) cells; assay: Cytotoxicity, MTT assay; format: cell-based; details: Homo sapiens, read-out: Cytotoxic activity IC50 HepG2
Aspergillus flavus = assay: In vitro antifungal activity, MIC by broth dilution; format: cell-based; details: fungi
Bacillus subtilis 6633 = assay: In vitro antibacterial activity, MIC by broth dilution; format: cell-based; details: Gram +ve bacteria, read-out: MIC B. subtilis
[5] = test system: Staphylococcus aureus 25923; assay: as above; format: cell-based; details: Gram +ve bacteria, read-out: MIC S. aureus
Escherichia coli 8739 = assay: as above; format: cell-based; details: Gram −ve bacteria
[6] = test system: Aspergillus niger EM77 (KF774181); assay: In vitro antifungal activity, MIC by broth dilution; format: cell-based; details: fungi
Candida tropicals 750 = assay: as above; format: cell-based; details: yeast, read-out: MIC C. tropicals
EGFR kinase = EGFR kinase (Homo sapiens, UniProt P00533); assay: In vitro EGFR kinase inhibitory assay (Kinase-Glo MAX kit); details: for IC50: EGFR IC50, EGFR kinase assay kit, triplicate, ± SD
Sequence of EGFR kinase (P00533 25-1210): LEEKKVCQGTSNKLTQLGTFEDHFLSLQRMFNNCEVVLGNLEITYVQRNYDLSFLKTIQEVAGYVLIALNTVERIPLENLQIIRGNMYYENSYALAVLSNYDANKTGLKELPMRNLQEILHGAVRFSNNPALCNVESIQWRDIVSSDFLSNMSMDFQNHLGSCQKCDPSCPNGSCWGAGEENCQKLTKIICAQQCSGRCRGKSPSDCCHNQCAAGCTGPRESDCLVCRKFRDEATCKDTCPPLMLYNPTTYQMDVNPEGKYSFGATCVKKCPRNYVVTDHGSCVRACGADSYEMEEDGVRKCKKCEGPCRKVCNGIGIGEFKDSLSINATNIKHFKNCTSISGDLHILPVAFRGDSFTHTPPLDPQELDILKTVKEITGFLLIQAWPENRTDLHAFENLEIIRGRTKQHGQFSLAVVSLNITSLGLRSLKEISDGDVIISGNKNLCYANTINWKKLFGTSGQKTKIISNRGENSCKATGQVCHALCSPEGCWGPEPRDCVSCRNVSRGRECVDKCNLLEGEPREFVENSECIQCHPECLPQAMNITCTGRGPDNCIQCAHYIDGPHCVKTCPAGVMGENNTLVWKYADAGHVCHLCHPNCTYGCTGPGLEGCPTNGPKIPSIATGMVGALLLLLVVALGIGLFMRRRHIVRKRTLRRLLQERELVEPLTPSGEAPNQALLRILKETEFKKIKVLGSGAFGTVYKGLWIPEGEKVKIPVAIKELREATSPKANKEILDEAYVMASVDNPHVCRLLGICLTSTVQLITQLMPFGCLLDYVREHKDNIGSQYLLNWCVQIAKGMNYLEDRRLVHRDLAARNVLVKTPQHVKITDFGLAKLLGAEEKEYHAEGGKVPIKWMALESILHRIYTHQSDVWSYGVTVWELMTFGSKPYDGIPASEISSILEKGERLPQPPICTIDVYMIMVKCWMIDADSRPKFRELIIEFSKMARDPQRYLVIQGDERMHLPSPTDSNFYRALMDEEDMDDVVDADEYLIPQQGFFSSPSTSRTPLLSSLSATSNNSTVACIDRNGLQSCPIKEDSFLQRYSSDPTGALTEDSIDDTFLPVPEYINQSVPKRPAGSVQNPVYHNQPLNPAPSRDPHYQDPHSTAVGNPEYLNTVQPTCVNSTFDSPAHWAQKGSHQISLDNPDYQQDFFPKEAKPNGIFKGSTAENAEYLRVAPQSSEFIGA
Protocol: The assay kit is designed to measure EGFR Kinase activity for screening applications using Kinase-Glo® MAX as a detection reagent. The luminescence was measured using a microplate reader (Infinite M200 microplate reader, Tecan, Männedorf, Switzerland) [54]. All assays were performed in triplicate and the relative inhibition (%) of inhibitors was then calculated via comparison with the control with no inhibitor.
In vitro EGFR kinase assay
The assay Kit is designed to measure EGFR Kinase
activity for screening applications using Kinase-Glo® MAX as a detection reagent
using Kinase-Glo® MAX as a detection reagent. Thaw 5x Kinase Buffer 1: ATP and
PTK substrate Poly (Glu:Tyr 4:1) (10 mg/ml) kinase was provided. Then the master
mixture was prepared: N wells x (6 μl 5x Kinase Buffer 1 + 1 µl ATP (500 µM) + 1
µl PTK substrate Poly (Glu:Tyr 4:1) (10 mg/ml)+ 17 μl water) and 25 μl of the
mixture was added to every well. The tested compounds were dissolved in DMSO,
well labeled as “Positive Control", 5 μl of the same solution of the reference drug
erlotinib and “Blank”, 5 μl of the same solution without inhibitor (Inhibitor buffer).
ml of 1x Kinase Buffer 1) was prepared by mixing 600 µl of 5x Kinase Buffer 1 with
The reaction initiated by adding 20 µl of diluted EGFR enzyme to the wells designated “Positive Control” and "Test Inhibitor Control". Incubate at 30°C for 40
minutes. Thaw Kinase-G lo Max reagent. After the 40 minute reaction, 50 µl of
Kinase-Glo Max reagent was added to each well. The plate was covered with
aluminum foil and incubate at room temperature for 15 minutes. Then the
luminescence was measured using the microplate reader (Infinite M200 microplate
reader, Tecan, Männedorf, Switzerland). All assays were performed in triplicate. The
relative inhibition (%) of inhibitors were then calculated compared to the control with
no inhibitor. Then the IC50 values and their standard deviation (SD) for the tested
compounds and the reference drug were determined in (nM).

[7] = test system: all the tested yeasts and fungi strains; assay: Antifungal MIC, range over the panel; format: cell-based
[8] = Cytotoxicity against normal cells, MTT assay; details: human, WISH normal cells
Description: The cytotoxicity was estimated as IC50 in μM for the tested compounds and the reference drug doxorubicin, and are listed in Table 3.

five bacterial strains = assay: Antibacterial MIC, range over the panel; format: cell-based

Row | MIC [1] [µg/mL] | MIC (Bacillus cereus 33018) [µg/mL] | MIC (Candida albicans 10231) [µg/mL] | MIC [3] [µg/mL] | MIC (Aspergillus flavus) [µg/mL] | MIC (Bacillus subtilis 6633) [µg/mL] | MIC [5] [µg/mL] | MIC (Escherichia coli 8739) [µg/mL] | MIC [6] [µg/mL] | MIC (Candida tropicals 750) [µg/mL] | melting point [°C] | IC50 (EGFR kinase) | Fold more potent than erlotinib (EGFR inhibition) (EGFR kinase; relative to erlotinib) [fold] | MIC range against the tested yeasts and fungi strains [7] [µg/mL] | SMILES | IC50 ([2]; Homo sapiens, MCF7, MCF7 cells) [µM] | IC50 [4] [µM] | IC50 [8] [µM] | IC50 ([2]; MCF7 cells) [µM] | MIC range against the tested bacterial strains (five bacterial strains) [µg/mL]
1 | 16 (≈ 64.7 µM) | 64 (≈ 259 µM) | 128 (≈ 518 µM) | > 128 | > 128 | > 128 | > 128 | > 128 | > 128 | 128 (≈ 518 µM) | – | – | – | – | Cc1cc(C)c2c(n1)sc1c(=O)[nH]c(=O)[nH]c12 [Compound 2a, 7,9-Dimethylpyrido[3′,2′:4,5]thieno[3,2-d]pyrimidine-2,4(1H,3H)-dione] | 64.3 ± 2.91 | 56.6 ± 3.64 | – | – | –
2 | 32 (≈ 83 µM) | 64 (≈ 166 µM) | 64 (≈ 166 µM) | 64 (≈ 166 µM) | 32 (≈ 83 µM) | 128 (≈ 332 µM) | 64 (≈ 166 µM) | 128 (≈ 332 µM) | 32 (≈ 83 µM) | 32 (≈ 83 µM) | 316 to 317 | – | – | – | Cc1ccc(-c2cc(-c3ccccc3)nc3sc4c(=O)[nH]c(=O)[nH]c4c23)cc1 [Compound 2b, 7-Phenyl-9-(p-tolyl)pyrido[3′,2′:4,5]thieno[3,2-d]pyrimidine-2,4(1H,3H)-dione] | 42.4 ± 2.24 | 33.2 ± 1.79 | – | – | –
3 | 64 (≈ 152 µM) | 32 (≈ 75.8 µM) | 32 (≈ 75.8 µM) | 32 (≈ 75.8 µM) | 32 (≈ 75.8 µM) | 8 (≈ 18.9 µM) | 32 (≈ 75.8 µM) | 16 (≈ 37.9 µM) | 16 (≈ 37.9 µM) | 16 (≈ 37.9 µM) | 220 | – | – | – | Cc1ccc(-c2cc(-c3ccccc3)nc3sc4c(Cl)nc(Cl)nc4c23)cc1 [Compound 3b, 2,4-Dichloro-7-phenyl-9-(p-tolyl)pyrido[3′,2′:4,5]thieno[3,2-d]pyrimidine] | 24.7 ± 1.32 | 11.3 ± 0.65 | – | – | –
4 | 8 (≈ 28.6 µM) | 4 (≈ 14.3 µM) | 16 (≈ 57.2 µM) | 16 (≈ 57.2 µM) | 8 (≈ 28.6 µM) | 8 (≈ 28.6 µM) | 4 (≈ 14.3 µM) | 8 (≈ 28.6 µM) | 8 (≈ 28.6 µM) | 16 (≈ 57.2 µM) | 330 to 331 | 0.027 µM and 0.0536 µM | 1.5 | 4 to 16 | Cc1cc(C)c2c(n1)sc1c(=O)[nH]c(CCl)nc12 [Compound 4a, 2-(Chloromethyl)-7,9-dimethylpyrido[3′,2′:4,5]thieno[3,2-d]pyrimidin-4(3H)-one] | 15.4 ± 0.45 | 2.99 ± 0.15 | 460 ± 11.1 | – | –
5 | 8 (≈ 19.1 µM) | 16 (≈ 38.3 µM) | 8 (≈ 19.1 µM) | 128 (≈ 306 µM) | 16 (≈ 38.3 µM) | 128 (≈ 306 µM) | 8 (≈ 19.1 µM) | 128 (≈ 306 µM) | 16 (≈ 38.3 µM) | 16 (≈ 38.3 µM) | 310 | – | – | 4 to 16 | Cc1ccc(-c2cc(-c3ccccc3)nc3sc4c(=O)[nH]c(CCl)nc4c23)cc1 [Compound 4b, 2-(Chloromethyl)-7-phenyl-9-(p-tolyl)pyrido[3′,2′:4,5]thieno[3,2-d]pyrimidin-4(3H)-one] | 43.3 ± 2.28 | 36.5 ± 1.82 | – | – | –
6 | 16 (≈ 33.2 µM) | 16 (≈ 33.2 µM) | 64 (≈ 133 µM) | 32 (≈ 66.4 µM) | 32 (≈ 66.4 µM) | 8 (≈ 16.6 µM) | 8 (≈ 16.6 µM) | 32 (≈ 66.4 µM) | 64 (≈ 133 µM) | 16 (≈ 33.2 µM) | 260 to 261 | – | – | – | Cc1ccc(-c2cc(-c3ccccc3)nc3sc4c(=O)[nH]c(CN5CCN(C)CC5)nc4c23)cc1 [Compound 5b, 2-((4-Methylpiperazin-1-yl)methyl)-7-phenyl-9-(p-tolyl)pyrido[3′,2′:4,5]thieno[3,2-d]pyrimidin-4(3H)-one] | 21.1 ± 1.16 | 10.2 ± 0.29 | – | – | –
7 | 8 (≈ 18.8 µM) | 16 (≈ 37.6 µM) | 8 (≈ 18.8 µM) | 16 (≈ 37.6 µM) | 16 (≈ 37.6 µM) | 8 (≈ 18.8 µM) | 4 (≈ 9.4 µM) | 8 (≈ 18.8 µM) | 8 (≈ 18.8 µM) | 8 (≈ 18.8 µM) | 210 | 0.05319 ± 0.00046 µM | – | 4 to 16 | Cc1ccc(-c2cc(-c3ccccc3)nc3sc4c(c23)NC2(CCCC2)NC4=O)cc1 [Compound 6b, 7′-Phenyl-9′-(p-tolyl)-1′H-spiro[cyclopentane-1,2′-pyrido[3′,2′:4,5]thieno[3,2-d]pyrimidin]-4′(3′H)-one] | 9.89 ± 0.55 | 2.75 ± 0.13 | 395 ± 10.2 | 9.89 ± 0.55 | –
8 | 8 (≈ 26.4 µM) | 8 (≈ 26.4 µM) | 16 (≈ 52.7 µM) | 16 (≈ 52.7 µM) | 16 (≈ 52.7 µM) | > 128 | 4 (≈ 13.2 µM) | 8 (≈ 26.4 µM) | 16 (≈ 52.7 µM) | 16 (≈ 52.7 µM) | – | – | – | 4 to 16 | Cc1cc(C)c2c3c(sc2n1)C(=S)NC1(CCCC1)N3 [Compound 7a, 7′,9′-Dimethyl-1′H-spiro[cyclopentane-1,2′-pyrido[3′,2′:4,5]thieno[3,2-d]pyrimidine]-4′(3′H)-thione] | 28.1 ± 0.92 | 26.1 ± 1.89 | – | – | –
9 | 8 (≈ 25.2 µM) | 8 (≈ 25.2 µM) | 16 (≈ 50.4 µM) | 32 (≈ 101 µM) | 4 (≈ 12.6 µM) | 32 (≈ 101 µM) | 32 (≈ 101 µM) | 32 (≈ 101 µM) | 16 (≈ 50.4 µM) | 8 (≈ 25.2 µM) | 201 | – | – | 4 to 16 | Cc1cc(C)c2c3c(sc2n1)C(=S)NC1(CCCCC1)N3 [Compound 7c, 7′,9′-Dimethyl-1′H-spiro[cyclohexane-1,2′-pyrido[3′,2′:4,5]thieno[3,2-d]pyrimidine]-4′(3′H)-thione] | 20.9 ± 0.93 | 10.3 ± 0.31 | – | – | –
10 | 32 (≈ 70.2 µM) | 64 (≈ 140 µM) | 32 (≈ 70.2 µM) | 32 (≈ 70.2 µM) | 64 (≈ 140 µM) | 64 (≈ 140 µM) | 4 (≈ 8.78 µM) | 32 (≈ 70.2 µM) | 64 (≈ 140 µM) | 64 (≈ 140 µM) | 178 to 179 | – | – | – | Cc1ccc(-c2cc(-c3ccccc3)nc3sc4c(c23)NC2(CCCCC2)NC4=S)cc1 [Compound 7d, 7′-Phenyl-9′-(p-tolyl)-1′H-spiro[cyclohexane-1,2′-pyrido[3′,2′:4,5]thieno[3,2-d]pyrimidine]-4′(3′H)-thione] | 26.6 ± 1.62 | 23.2 ± 0.35 | – | – | –
11 | – | – | – | – | – | – | – | – | – | – | – | – | – | – | COc1cccc2c1C(=O)c1c(O)c3c(c(O)c1C2=O)C[C@@](O)(C(=O)CO)C[C@@H]3O[C@H]1C[C@H](N)[C@H](O)[C@H](C)O1 [Doxorubicin, doxorubicin, reference compound] | 3.58 ± 0.33 | 2.85 ± 0.21 | 432 ± 19.3 | – | –

Row | SMILES | MIC [1] [µg/mL] | MIC (Bacillus cereus 33018) [µg/mL] | MIC (Candida albicans 10231) [µg/mL] | MIC [3] [µg/mL] | MIC (Aspergillus flavus) [µg/mL] | MIC (Bacillus subtilis 6633) [µg/mL] | MIC [5] [µg/mL] | MIC (Escherichia coli 8739) [µg/mL] | MIC [6] [µg/mL] | MIC (Candida tropicals 750) [µg/mL] | melting point [°C] | IC50 (EGFR kinase) | Fold more potent than erlotinib (EGFR inhibition) (EGFR kinase; relative to erlotinib) [fold] | MIC range against the tested yeasts and fungi strains [7] [µg/mL] | IC50 ([2]; Homo sapiens, MCF7, MCF7 cells) [µM] | IC50 [4] [µM] | IC50 [8] [µM] | IC50 ([2]; MCF7 cells) [µM] | MIC range against the tested bacterial strains (five bacterial strains) [µg/mL]
12 | Cc1ccc(-c2cc(-c3ccccc3)nc3sc4c(c23)NC2(CCCCC2)NC4=O)cc1 [Compound 6d, 7′-Phenyl-9′-(p-tolyl)-1′H-spiro[cyclohexane-1,2′-pyrido[3′,2′:4,5]thieno[3,2-d]pyrimidin]-4′(3′H)-one] | 32 (≈ 72.8 µM) | 8 (≈ 18.2 µM) | 64 (≈ 146 µM) | 32 (≈ 72.8 µM) | 32 (≈ 72.8 µM) | 32 (≈ 72.8 µM) | 8 (≈ 18.2 µM) | 32 (≈ 72.8 µM) | 16 (≈ 36.4 µM) | 64 (≈ 146 µM) | 263 | – | – | – | 21.7 ± 0.7 | 4.45 ± 0.22 | – | – | 8 to 32
13 | Cc1ccc(-c2cc(-c3ccccc3)nc3sc4c(c23)NC2(CCCC2)NC4=S)cc1 [Compound 7b, 7′-Phenyl-9′-(p-tolyl)-1′H-spiro[cyclopentane-1,2′-pyrido[3′,2′:4,5]thieno[3,2-d]pyrimidine]-4′(3′H)-thione] | 32 (≈ 72.5 µM) | 64 (≈ 145 µM) | 64 (≈ 145 µM) | 128 (≈ 290 µM) | 64 (≈ 145 µM) | 64 (≈ 145 µM) | 64 (≈ 145 µM) | 64 (≈ 145 µM) | 128 (≈ 290 µM) | 64 (≈ 145 µM) | – | – | – | – | 41.6 ± 2.2 | 39.7 ± 1.89 | – | – | 64 to 128
14 | Cc1cc(C)c2c3c(sc2n1)C(SCC(N)=O)=NC1(CCCCC1)N3 [Compound 8a, 2-((7′,9′-Dimethyl-1′H-spiro[cyclohexane-1,2′-pyrido[3′,2′:4,5]thieno[3,2-d]pyrimidin]-4′-yl)sulfanyl)acetamide] | 16 (≈ 42.7 µM) | 8 (≈ 21.4 µM) | 64 (≈ 171 µM) | 32 (≈ 85.4 µM) | 16 (≈ 42.7 µM) | 16 (≈ 42.7 µM) | 8 (≈ 21.4 µM) | 32 (≈ 85.4 µM) | 16 (≈ 42.7 µM) | 16 (≈ 42.7 µM) | 160 to 161 | – | – | – | 20.9 ± 1.46 | 6.78 ± 0.73 | – | – | 8 to 32
15 | Cc1cc(C)c2c3c(sc2n1)C(SCC1CO1)=NC1(CCCCC1)N3 (centres unmarked) [Compound 9a, 7′,9′-Dimethyl-4′-((oxiran-2-ylmethyl)sulfanyl)-1′H-spiro[cyclohexane-1,2′-pyrido[3′,2′:4,5]thieno[3,2-d]pyrimidine]] | 32 (≈ 85.7 µM) | 8 (≈ 21.4 µM) | 16 (≈ 42.8 µM) | 16 (≈ 42.8 µM) | 16 (≈ 42.8 µM) | 32 (≈ 85.7 µM) | 16 (≈ 42.8 µM) | 32 (≈ 85.7 µM) | 64 (≈ 171 µM) | 32 (≈ 85.7 µM) | 155 | – | – | – | 23.6 ± 1.24 | 4.88 ± 0.65 | – | – | 8 to 32
